Data taken from US20230277597A1, “HAPLOIDENTICAL MIXED CHIMERISM FOR TREATING AUTOIMMUNE DISEASES” (CITY OF HOPE, priority 2020, published 2023).

Tested on: Foxp3^+ Treg cells
Test: In vivo Treg depletion with diphtheria toxin in Haplo-MC NOD mice carrying Foxp3^DTR
Design: species or system mouse
Conditions: for mice insulitis free in all the evaluated islets: 3 weeks after first injection

Substance: diphtheria toxin [DT]
- insulitis after depletion of donor-type or host-type Treg cells (DT every 3 days for 21 days, H-2^b/g7 mixed chimeric NOD mice): significant but moderate recurrence of insulitis, without causing hyperglycemia
- reduction of donor-type Treg (DT every 3 days for 21 days, donor cells carrying Foxp3^DTR): ~95%
- reduction of host-type Treg (DT every 3 days for 21 days, host cells carrying Foxp3^DTR): ~90%
- mice insulitis free in all the evaluated islets (donor-type Treg depleted chimeric mice): 50%
- mice insulitis free in all the evaluated islets (host-type Treg depleted chimeric mice): 33%
